From patent US12433908B2, “Use of nicotinamide riboside, nicotinic acid riboside, and nicotinamide mononucleotide, reduced nicotinyl compounds, and nicotinoyl compound derivatives in infant formula for healthy development” (ChromaDex, Inc., priority 2016, dated 2025)

Experiment: CBC analysis of piglets given NR solution
Assay type: in vivo, piglets (Yorkshire/Hampshire crossbred)
From the text: Sixteen (n=16) Yorkshire/Hampshire crossbred piglets were obtained from the University of California, Davis Swine Teaching and Research Center and received on lactation day (“LD”) 14. Prior to arrive, the piglets were processed by the suppler between 1-3 days of age by administration of iron and an antibiotic ([…] for swine) as is common practice at the University of California, Davis Swine Facility. It is not common practice at the University of California, Davis Swine Facility to give a second dose of iron and antibiotics unless it becomes necessary. The piglets were from two litters (litters 15 and 17), weaned at 17 days of age, and randomly placed into one of two groups balanced for litter, sex, and weight. The animals were not acclimated to the facility at arrival and were subsequently acclimated to the test diet administration system. The piglets were weaned into a temperature-controlled room (approximately 27-29° C.) that contained 10 adjacent pens. The piglets were group-housed in the nursery room at the Swine Facility, which is an enclosed room with access restricted to trained personnel. The two groups were separated by one pen containing piglets of similar age. Each morning enough nicotinamide riboside (NR, I) in water solution was prepared for that day's dose administration according to the dose preparation protocol. At least 5 mL of prepared dose was reserved and immediately frozen after preparation each day for analysis of nicotinamide riboside (NR, I) for the purpose of confirming stability of the dose material. The doses were stored at refrigeration temperature while not in use. Nicotinamide riboside (NR, I) was dosed once per day in the morning and at the same time each day. Piglets in the control group received the same volume of plain water and were dosed on the same schedule. Starting on Day 1, animals in the nicotinamide riboside (NR, I) group were dosed once daily (in the morning) with 277 mg nicotinamide riboside (NR, I) per pig resuspended in water for seven days. After one week, animals were dosed once daily with 342 mg nicotinamide riboside (NR, I) per pig delivered in 2.5 mL for seven days. For Days 1 and 2, the nicotinamide riboside (NR, I) solution was prepared by resuspending 2770 mg nicotinamide riboside (NR, I) in 50 mL water, and 5 mL of this solution was delivered to each pig by squirting it into the back of the mouth using a 10 mL syringe with a piece of tubing attached to the end. To reduce the volume to more efficiently deliver the nicotinamide riboside (NR, I) solution, the 2770 mg was resuspended in 25 mL water and 2.5 mL of the solution was squirted into the back of the mouth of each pig using a 3 mL syringe for Days 3-7. For Days 8-14, 3420 mg nicotinamide riboside (NR, I) was resuspended in 25 mL water and 2.5 mL of this solution was delivered to each pig. Each day prior to dosing, 2.5 mL of the nicotinamide riboside (NR, I) (5 mL on Days 1 and 2) were placed into a separate tube and frozen. Blood was collected from each pig via jugular venipuncture on Days 1, 8, and 14. In each instance, blood was collected prior to dosing with nicotinamide riboside (NR, I). On Day 1, the sow was removed from the piglets for approximately three hours prior to sample collection. On Days 8 and 14, feed was removed from the animals' pens 12 hours prior to sample collection. Blood was collected into purple-top vacutainers for CBC analysis and into red-top vacutainers for blood chemistry analysis. CBC analysis was performed at IDEXX Laboratories in West Sacramento, California using the Sysmex XT-iV Vet Hematology Autoanalyzer (Sysmex America Inc., Lincolnshire, Illinois). Red-top tubes were spun to collect serum and the serum frozen. Frozen aliquots (500 μL) were submitted to the University of California, Davis Veterinary medicine Teaching Hospital Clinical Diagnostic Laboratory for Blood Chemistry Analysis using the Cobas 6000 C501 Clinical Chemistry Analyzer (Roche Diagnostics, Indianapolis, IN). […]

[1] = Wk 1, 277 mg/pig once daily oral
[2] = Wk 2, 342 mg/pig once daily oral Days 8-14

Q: With `NC(=O)c1ccc[n+]([C@@H]2O[C@H](CO)[C@@H](O)[C@H]2O)c1` [NR, Nicotinamide riboside] as the compound, how does the “Basophils, %” value (Baseline, before dosing) read?
A: Its value is 0.57%.

Q: And the “Basophils, count” value (Baseline, before dosing)?
A: Its value is 60 cells/μL.

Q: What about the “Eosinophils, %” value (Baseline, before dosing) of the same compound?
A: The value was 1.11%.

Q: What about the “Eosinophils, count” value (Baseline, before dosing) of the same compound?
A: Its value is 108 cells/μL.

Q: And the HCT (Baseline, before dosing)?
A: Its HCT is 29.9%.

Q: And the HGB (Baseline, before dosing)?
A: Its HGB is 10.4 g/dL.

Q: What about the “Lymphocytes, %” value (Baseline, before dosing) of the same compound?
A: Its value is 65.8%.

Q: And the “Lymphocytes, count” value (Baseline, before dosing)?
A: Its value is 6.48 ×10^3 cells/μL.

Q: And the MCH (Baseline, before dosing)?
A: Its MCH is 16.0 pg.

Q: What about the MCHC (Baseline, before dosing) of the same compound?
A: Its MCHC is 34.3 g/dL.

Q: What about the MCV (Baseline, before dosing) of the same compound?
A: Its MCV is 46.2 fL.

Q: What about the “Monocytes, %” value (Baseline, before dosing) of the same compound?
A: The value was 6.17%.

Q: And the “Monocytes, count” value (Baseline, before dosing)?
A: Its value is 596 cells/μL.

Q: And the Neutrophil/Lymphocyte (Baseline, before dosing)?
A: The Neutrophil/Lymphocyte was 0.41.

Q: And the “Neutrophils, %” value (Baseline, before dosing)?
A: Its value is 26.3%.

Q: What about the “Neutrophils, count” value (Baseline, before dosing) of the same compound?
A: The value was 2.47 ×10^3 cells/μL.

Q: And the RBC (Baseline, before dosing)?
A: Its RBC is 6.45 M/μL.

Q: And the WBC (Baseline, before dosing)?
A: The WBC was 9.7 ×10^3 cells/μL.

Q: What about the “Basophils, %” value [1] of the same compound?
A: Its value is 0.49%.

Q: And the “Basophils, count” value [1]?
A: The value was 68 cells/μL.

Q: And the “Eosinophils, %” value [1]?
A: Its value is 1.52%.

Q: And the “Eosinophils, count” value [1]?
A: The value was 213 cells/μL.

Q: What about the HCT [1] of the same compound?
A: The HCT was 27.3%.

Q: What about the HGB [1] of the same compound?
A: The HGB was 9.4 g/dL.

Q: And the “Lymphocytes, %” value [1]?
A: The value was 51.0%.

Q: What about the “Lymphocytes, count” value [1] of the same compound?
A: The value was 6.34 ×10^3 cells/μL.

Q: And the MCH [1]?
A: Its MCH is 15.4 pg.

Q: What about the MCHC [1] of the same compound?
A: Its MCHC is 34.7 g/dL.

Q: And the MCV [1]?
A: Its MCV is 44.7 fL.

Q: What about the “Monocytes, %” value [1] of the same compound?
A: Its value is 6.01%.

Q: What about the “Monocytes, count” value [1] of the same compound?
A: Its value is 803 cells/μL.

Q: What about the Neutrophil/Lymphocyte [1] of the same compound?
A: The Neutrophil/Lymphocyte was 0.85.

Q: What about the “Neutrophils, %” value [1] of the same compound?
A: The value was 40.9%.

Q: What about the “Neutrophils, count” value [1] of the same compound?
A: The value was 5.41 ×10^3 cells/μL.

Q: And the RBC [1]?
A: The RBC was 6.06 M/μL.

Q: What about the WBC [1] of the same compound?
A: Its WBC is 12.8 ×10^3 cells/μL.

Q: And the “Basophils, %” value [2]?
A: Its value is 0.30%.

Q: And the “Basophils, count” value [2]?
A: The value was 61 cells/μL.

Q: And the “Eosinophils, %” value [2]?
A: The value was 1.07%.

Q: What about the “Eosinophils, count” value [2] of the same compound?
A: Its value is 179 cells/μL.

Q: What about the HCT [2] of the same compound?
A: Its HCT is 26%.

Q: And the HGB [2]?
A: The HGB was 9.4 g/dL.

Q: What about the “Lymphocytes, %” value [2] of the same compound?
A: Its value is 54.9%.

Q: And the “Lymphocytes, count” value [2]?
A: Its value is 10.31 ×10^3 cells/μL.

Q: And the MCH [2]?
A: Its MCH is 15.5 pg.

Q: And the MCHC [2]?
A: The MCHC was 35.2 g/dL.

Q: What about the MCV [2] of the same compound?
A: The MCV was 44.2 fL.

Q: And the “Monocytes, %” value [2]?
A: Its value is 6.80%.

Q: What about the “Monocytes, count” value [2] of the same compound?
A: The value was 1336 cells/μL.

Q: And the Neutrophil/Lymphocyte [2]?
A: The Neutrophil/Lymphocyte was 0.73.

Q: What about the “Neutrophils, %” value [2] of the same compound?
A: Its value is 36.9%.

Q: What about the “Neutrophils, count” value [2] of the same compound?
A: Its value is 7.59 ×10^3 cells/μL.

Q: And the RBC [2]?
A: Its RBC is 6.11 M/μL.

Q: What about the WBC [2] of the same compound?
A: The WBC was 19.5 ×10^3 cells/μL.

Q: And the “CBC and serum chemistries, NR vs. control” value (baseline and weekly for the 2-week intervention)?
A: The value was “no statistically significant differences”.
